Data from PubChem BioAssay AID651685 (The Scripps Research Institute Molecular Screening Center, 2012).
Active and inactive are the calls of the source. The rule behind the calls is not given here.

These compounds were tested against Mu-type opioid receptor (Homo sapiens) (UniProt P35372) (assay: activators of OPRM1-OPRD1 heterodimerization, late-stage follow-up, cell-based, luminescence, dose response (AID 651685)). Settings: cells, luminescence complementation.
Sequence of Mu-type opioid receptor (Homo sapiens) (P35372 whole entry, looked up): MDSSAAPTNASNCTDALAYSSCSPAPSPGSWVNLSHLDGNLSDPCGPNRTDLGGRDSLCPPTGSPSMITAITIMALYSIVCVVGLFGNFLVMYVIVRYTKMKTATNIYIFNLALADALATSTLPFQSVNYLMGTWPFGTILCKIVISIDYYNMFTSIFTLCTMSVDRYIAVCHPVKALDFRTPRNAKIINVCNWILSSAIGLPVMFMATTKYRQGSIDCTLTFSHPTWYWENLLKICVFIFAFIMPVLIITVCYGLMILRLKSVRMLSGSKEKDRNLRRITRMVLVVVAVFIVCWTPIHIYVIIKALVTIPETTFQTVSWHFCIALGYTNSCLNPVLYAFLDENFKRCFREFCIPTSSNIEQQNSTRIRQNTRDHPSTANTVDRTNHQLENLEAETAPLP

Row | SMILES | EC50
1 | CCOC(=O)C1(Cc2ccccc2)CCN(Cc2cccn2-c2nccs2)CC1 | > 40 µM (inactive)
2 | CCOC(=O)C1(CCc2ccccc2)CCN(Cc2ccccc2C)CC1 | 7 µM
3 | CCOC(=O)C1(CCOc2ccccc2)CCN(Cc2cccn2-c2cccnc2)CC1 | 4.4 µM
4 | CCOC(=O)C1(CCCc2ccccc2)CCN(Cc2cnn(C)c2)CC1 | 8.9 µM
5 | CCOC(=O)C1(Cc2ccccc2)CCN(Cc2cccn2-c2cccnc2)CC1 | > 40 µM (inactive)
6 | CCOC(=O)C1(CCc2ccccc2)CCN(Cc2ccc(NC(C)=O)cc2)CC1 | 0.403 µM
7 | CCOC(=O)C1(CC2CCCCO2)CCN(Cc2c(C)cc(C)cc2-n2cccn2)CC1 (stereo unspecified) | 0.901 µM
8 | OCC1(CCc2ccccc2)CCN(Cc2cc(F)ccc2-n2cccn2)CC1 | > 40 µM (inactive)
9 | CCOC(=O)C1(CCOc2ccccc2)CCN(Cc2ccc(O)c(OC)c2)CC1 | inactive
10 | CCOC(=O)C1(CCc2ccccc2)CCN(Cc2ccc(OC(C)C)c(C#N)c2)CC1 | > 40 µM (inactive)
11 | CCOC(=O)C1(CCc2ccccc2)CCN(Cc2cc(C)cc(C)c2)CC1 | > 40 µM (inactive)
